Assay results reported in the supplement of paper PMC10307832.

Key:
Assay in all cases: relative viability (nuclei count vs DMSO), 5 days (fraction); higher = more cells survive
NCI-H1355 = tested on: NCI-H1355
Procedure, shortened: (§1)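 After 5 days of treatment, lung cancer cells in 1536-well plates were fixed and stained in a single step (final 0.05% Triton X-100, 1% formaldehyde, 1 ug/ml Hoechst) and their nuclei counted on 4× images. Treatment had been applied by pin tool the day after seeding as one drug alone or as a fixed anchor-drug dose with five library-drug doses (not always all listed) in √10 steps. Relative viability is the nuclei count of treated wells divided by that of vehicle wells, and values are medians of duplicate plates.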

NCI-H2126 = tested on: NCI-H2126
Procedure, shortened: as §1

LK-2 = tested on: LK-2
Procedure, shortened: as §1

IA-LM = tested on: IA-LM
Procedure, shortened: as §1

NCI-H1563 = tested on: NCI-H1563
Procedure, shortened: as §1

NCI-H1623 = tested on: NCI-H1623
Procedure, shortened: as §1

C=C1C(=O)O[C@@H](CCCCCCCC)[C@@H]1C(=O)O [C-75] + O=C(CCCCCCC(=O)Nc1ccccc1)NO [Vorinostat] (partner 1 µM)
relative viability (NCI-H1355; first compound 0.08 µM): 0.643 | relative viability (NCI-H1355; first compound 0.253 µM): 0.696 | relative viability (NCI-H1355; first compound 0.8 µM): 0.67 | relative viability (NCI-H1355; first compound 2.53 µM): 0.52 | relative viability (NCI-H1355; first compound 8 µM): 0.639 | relative viability (NCI-H2126; first compound 0.08 µM): 0.721 | relative viability (NCI-H2126; first compound 0.253 µM): 0.92 | relative viability (NCI-H2126; first compound 0.8 µM): 0.792 | relative viability (NCI-H2126; first compound 2.53 µM): 0.642 | relative viability (NCI-H2126; first compound 8 µM): 0.744 | relative viability (LK-2; first compound 0.08 µM): 0.387 | relative viability (LK-2; first compound 0.253 µM): 0.315 | relative viability (LK-2; first compound 0.8 µM): 0.319 | relative viability (LK-2; first compound 2.53 µM): 0.286 | relative viability (LK-2; first compound 8 µM): 0.324 | relative viability (IA-LM; first compound 0.08 µM): 0.886 | relative viability (IA-LM; first compound 0.253 µM): 1.35 | relative viability (IA-LM; first compound 0.8 µM): 0.935 | relative viability (IA-LM; first compound 2.53 µM): 1.25 | relative viability (IA-LM; first compound 8 µM): 0.8

Oc1nc(-c2ccc(C(F)(F)F)cc2)nc2c1CSCC2 [XAV939] + Nc1nc2[nH]cc(CCc3ccc(C(=O)N[C@@H](CCC(=O)O)C(=O)O)cc3)c2c(=O)[nH]1 [Pemetrexed] (partner 0.2 µM)
relative viability (NCI-H1355; first compound 0.08 µM): 1.02 | relative viability (NCI-H1355; first compound 0.253 µM): 0.944 | relative viability (NCI-H1355; first compound 0.8 µM): 0.962 | relative viability (NCI-H1355; first compound 2.53 µM): 0.852 | relative viability (NCI-H2126; first compound 0.08 µM): 0.671 | relative viability (NCI-H2126; first compound 0.253 µM): 0.542 | relative viability (NCI-H2126; first compound 0.8 µM): 0.665 | relative viability (NCI-H2126; first compound 2.53 µM): 0.598 | relative viability (LK-2; first compound 0.08 µM): 0.291 | relative viability (LK-2; first compound 0.253 µM): 0.281 | relative viability (LK-2; first compound 0.8 µM): 0.236 | relative viability (LK-2; first compound 2.53 µM): 0.229 | relative viability (NCI-H1563; first compound 0.08 µM): 0.823 | relative viability (NCI-H1563; first compound 0.253 µM): 0.685 | relative viability (NCI-H1563; first compound 0.8 µM): 0.659 | relative viability (NCI-H1563; first compound 2.53 µM): 0.47

C=C1C(=O)O[C@@H](CCCCCCCC)[C@@H]1C(=O)O [C-75] + CC(=O)Nc1cccc(-n2c(=O)n(C3CC3)c(=O)c3c(Nc4ccc(I)cc4F)n(C)c(=O)c(C)c32)c1 [Trametinib] (partner 0.02 µM)
relative viability (NCI-H1355; first compound 0.08 µM): 0.436 | relative viability (NCI-H1355; first compound 0.253 µM): 0.406 | relative viability (NCI-H1355; first compound 0.8 µM): 0.384 | relative viability (NCI-H1355; first compound 2.53 µM): 0.343 | relative viability (NCI-H1355; first compound 8 µM): 0.448 | relative viability (NCI-H2126; first compound 0.08 µM): 0.587 | relative viability (NCI-H2126; first compound 0.253 µM): 0.587 | relative viability (NCI-H2126; first compound 0.8 µM): 0.581 | relative viability (NCI-H2126; first compound 2.53 µM): 0.553 | relative viability (NCI-H2126; first compound 8 µM): 0.502 | relative viability (LK-2; first compound 0.08 µM): 0.719 | relative viability (LK-2; first compound 0.253 µM): 1.31 | relative viability (LK-2; first compound 0.8 µM): 0.822 | relative viability (LK-2; first compound 2.53 µM): 0.521 | relative viability (LK-2; first compound 8 µM): 0.575

Oc1nc(-c2ccc(C(F)(F)F)cc2)nc2c1CSCC2 [XAV939] + CC(=O)c1c(C)c2cnc(Nc3ccc(N4CCNCC4)cn3)nc2n(C2CCCC2)c1=O [Palbociclib] (partner 0.5 µM)
relative viability (NCI-H1355; first compound 0.08 µM): 0.401 | relative viability (NCI-H1355; first compound 0.253 µM): 0.319 | relative viability (NCI-H1355; first compound 0.8 µM): 0.351 | relative viability (NCI-H1355; first compound 2.53 µM): 0.282 | relative viability (NCI-H2126; first compound 0.08 µM): 0.301 | relative viability (NCI-H2126; first compound 0.253 µM): 0.352 | relative viability (NCI-H2126; first compound 0.8 µM): 0.35 | relative viability (NCI-H2126; first compound 2.53 µM): 0.336 | relative viability (LK-2; first compound 0.08 µM): 0.526 | relative viability (LK-2; first compound 0.253 µM): 0.626 | relative viability (LK-2; first compound 0.8 µM): 0.609 | relative viability (LK-2; first compound 2.53 µM): 0.545

Oc1nc(-c2ccc(C(F)(F)F)cc2)nc2c1CSCC2 [XAV939] + Cc1nc(Nc2ncc(C(=O)Nc3c(C)cccc3Cl)s2)cc(N2CCN(CCO)CC2)n1 [Dasatinib] (partner 0.075 µM)
relative viability (NCI-H1355; first compound 0.08 µM): 0.569 | relative viability (NCI-H1355; first compound 0.253 µM): 0.495 | relative viability (NCI-H1355; first compound 0.8 µM): 0.507 | relative viability (NCI-H1355; first compound 2.53 µM): 0.356 | relative viability (NCI-H2126; first compound 0.08 µM): 0.544 | relative viability (NCI-H2126; first compound 0.253 µM): 0.403 | relative viability (NCI-H2126; first compound 0.8 µM): 0.405 | relative viability (NCI-H2126; first compound 2.53 µM): 0.33 | relative viability (NCI-H1623; first compound 0.08 µM): 0.474 | relative viability (NCI-H1623; first compound 0.253 µM): 0.516 | relative viability (NCI-H1623; first compound 0.8 µM): 0.521 | relative viability (NCI-H1623; first compound 2.53 µM): 0.555 | relative viability (LK-2; first compound 0.08 µM): 0.262 | relative viability (LK-2; first compound 0.253 µM): 0.31 | relative viability (LK-2; first compound 0.8 µM): 0.27 | relative viability (LK-2; first compound 2.53 µM): 0.399 | relative viability (NCI-H1563; first compound 0.08 µM): 0.422 | relative viability (NCI-H1563; first compound 0.253 µM): 0.442 | relative viability (NCI-H1563; first compound 0.8 µM): 0.475 | relative viability (NCI-H1563; first compound 2.53 µM): 0.415

Oc1nc(-c2ccc(C(F)(F)F)cc2)nc2c1CSCC2 [XAV939] + O=C(CCCCCCC(=O)Nc1ccccc1)NO [Vorinostat] (partner 1 µM)
relative viability (NCI-H1355; first compound 0.08 µM): 0.688 | relative viability (NCI-H1355; first compound 0.253 µM): 0.546 | relative viability (NCI-H1355; first compound 0.8 µM): 0.552 | relative viability (NCI-H1355; first compound 2.53 µM): 0.445 | relative viability (NCI-H2126; first compound 0.08 µM): 0.835 | relative viability (NCI-H2126; first compound 0.253 µM): 0.587 | relative viability (NCI-H2126; first compound 0.8 µM): 0.733 | relative viability (NCI-H2126; first compound 2.53 µM): 0.564 | relative viability (LK-2; first compound 0.08 µM): 0.371 | relative viability (LK-2; first compound 0.253 µM): 0.325 | relative viability (LK-2; first compound 0.8 µM): 0.251 | relative viability (LK-2; first compound 2.53 µM): 0.24 | relative viability (IA-LM; first compound 0.08 µM): 1.08 | relative viability (IA-LM; first compound 0.253 µM): 0.664 | relative viability (IA-LM; first compound 0.8 µM): 0.951 | relative viability (IA-LM; first compound 2.53 µM): 0.778
